The target in one data set is T1, MDR1 (Homo sapiens, UniProt P08183).
T1 construct: expressed in transfected cells
In words: MDR1 membrane permeability test. In kind it is in vitro ADME. The following applies: pH 7.4, efflux ratio (ER), Papp B to A / A to B, human MDR1-expressing LLC-PK1 cells, read-out: MDR1 substrate screening 1 μM (MDRSUB1)/Ratio (NUMBER). The method, boiled down:
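Human MDR1-expressing LLC-PK1 cells were grown for 3 days on 96-well polyethylene terephthalate Transwell supports (0.4 μm pores, 0.143 cm^2) seeded at 3.45×10^4 cells/well. After a 30 min preincubation in M199 medium with 10 mmol/L HEPES and 1% BSA (pH 7.4), drug was added apically or basolaterally. After 1 hr at 37° C, the opposite side was sampled and analyzed by LC-MS/MS. Efflux ratio was calculated from Papp B to A versus A to B.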

The target in data set [1] is T2, human M1 receptor (hCHRM1) (Homo sapiens, UniProt P11229).
T2 construct: expressed in transfected cells
T2 sequence (P11229 1-460): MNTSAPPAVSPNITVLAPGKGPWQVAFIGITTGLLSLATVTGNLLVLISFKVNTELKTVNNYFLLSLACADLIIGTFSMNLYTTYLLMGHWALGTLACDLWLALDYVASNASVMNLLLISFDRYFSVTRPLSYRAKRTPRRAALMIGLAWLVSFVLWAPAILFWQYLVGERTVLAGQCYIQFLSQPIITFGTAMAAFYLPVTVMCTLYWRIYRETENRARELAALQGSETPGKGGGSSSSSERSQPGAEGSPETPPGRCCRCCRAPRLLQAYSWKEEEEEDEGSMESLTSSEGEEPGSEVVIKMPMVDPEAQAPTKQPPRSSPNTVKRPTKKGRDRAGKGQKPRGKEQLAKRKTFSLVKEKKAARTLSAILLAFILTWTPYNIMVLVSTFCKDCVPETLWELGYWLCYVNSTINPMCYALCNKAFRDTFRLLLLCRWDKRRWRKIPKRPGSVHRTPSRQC
Put plainly: Measurement of M1 receptor positive allosteric modulator (M1PAM) activity, calcium fluorescence in CHO-K1 cells. It counts as cell-based. The following applies: for activity (%) at 10 μM: 10 μM test compound, 100% = acetylcholine final concentration 1 μM, 0% = DMSO; for EC50: inflection point of concentration-dependent curve, in the presence of acetylcholine at EC20 concentration (final 0.8-1.0 nM), read-out: IP value. On the procedure:
Measurement of M1 Receptor Positive Allosteric Modulator (M1PAM) Activity
The activity of a test compound in the presence of acetylcholine at EC20 concentration (final concentration 0.8-1.0 nM), which affords an action corresponding to about 20% of the maximum activity, was measured as PAM activity. The method is as follows. CHO-K1 cells stably expressing a human M1 receptor (hCHRM1) were plated on a 384-well black clear bottom plate (BD Falcon) at 5,000 cells/well, and cultured in an incubator at 37° C., 5% CO2 for 1 day. The medium in the cell plate was removed, and assay buffer A containing calcium indicator (Recording medium (DOJINDO LABORATORIES), 0.1% BSA (Wako Pure Chemical Industries, Ltd.), 2.5 μg/mL Fluo-4 AM (DOJINDO LABORATORIES), 0.08% Pluronic F127 (DOJINDO LABORATORIES), 1.25 mM probenecid (DOJINDO LABORATORIES)) was added at 30 μL/well. The cells were left standing in the incubator at 37° C., 5% CO2 for 30 min, and further left standing at room temperature for 30 min. A test compound prepared by diluting with assay buffer B (HBSS (Invitrogen), 20 mM HEPES (Invitrogen), 0.1% BSA) containing 3.2-4.0 nM acetylcholine was added at 10 μL/well, and the fluorescence was measured by FDSS/pCELL (Hamamatsu Photonics K.K.) for 1 min every for 1 second. With the definition that the amount of change in the fluorescence on addition of acetylcholine (final concentration 1 μM) is 100% and that on addition of DMSO instead of a test compound is 0%, the activity (%) of the test compound was calculated, and the inflection point in the concentration-dependent curve of the test compound was calculated as IP values.

T1 sequence (P08183 whole entry): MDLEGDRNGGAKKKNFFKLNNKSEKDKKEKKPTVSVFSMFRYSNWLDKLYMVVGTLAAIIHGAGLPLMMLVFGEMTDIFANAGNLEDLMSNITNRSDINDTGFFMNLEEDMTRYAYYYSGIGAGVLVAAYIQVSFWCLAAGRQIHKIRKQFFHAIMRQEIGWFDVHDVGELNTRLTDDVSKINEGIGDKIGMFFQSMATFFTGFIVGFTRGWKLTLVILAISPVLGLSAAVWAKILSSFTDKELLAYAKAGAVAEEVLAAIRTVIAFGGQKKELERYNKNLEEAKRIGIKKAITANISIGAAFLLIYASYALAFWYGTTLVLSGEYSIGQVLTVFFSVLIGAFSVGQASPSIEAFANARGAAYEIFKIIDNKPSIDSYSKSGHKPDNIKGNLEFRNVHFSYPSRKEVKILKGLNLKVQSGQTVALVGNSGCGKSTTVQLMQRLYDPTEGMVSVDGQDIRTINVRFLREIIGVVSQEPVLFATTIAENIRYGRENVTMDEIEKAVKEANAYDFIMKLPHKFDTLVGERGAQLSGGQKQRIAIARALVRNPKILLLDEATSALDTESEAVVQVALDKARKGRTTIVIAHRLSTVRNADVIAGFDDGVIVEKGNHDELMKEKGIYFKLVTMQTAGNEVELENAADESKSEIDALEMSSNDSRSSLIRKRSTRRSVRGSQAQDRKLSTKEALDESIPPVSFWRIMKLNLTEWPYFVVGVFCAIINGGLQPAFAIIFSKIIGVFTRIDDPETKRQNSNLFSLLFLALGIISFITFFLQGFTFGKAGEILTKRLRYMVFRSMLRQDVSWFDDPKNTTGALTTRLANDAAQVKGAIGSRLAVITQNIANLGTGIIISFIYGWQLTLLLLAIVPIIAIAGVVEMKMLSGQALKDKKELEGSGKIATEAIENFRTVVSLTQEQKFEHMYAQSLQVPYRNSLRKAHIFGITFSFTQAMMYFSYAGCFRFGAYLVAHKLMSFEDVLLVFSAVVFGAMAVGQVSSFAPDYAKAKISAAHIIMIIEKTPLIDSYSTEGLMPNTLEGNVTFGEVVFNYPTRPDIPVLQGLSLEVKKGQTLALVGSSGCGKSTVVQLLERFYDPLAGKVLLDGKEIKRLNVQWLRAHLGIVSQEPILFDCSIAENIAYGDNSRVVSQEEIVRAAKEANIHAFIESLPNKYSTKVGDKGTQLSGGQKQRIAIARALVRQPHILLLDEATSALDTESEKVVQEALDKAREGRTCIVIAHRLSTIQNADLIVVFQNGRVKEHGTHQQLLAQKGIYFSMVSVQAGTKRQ

As to `Cc1c(Cc2ccc(C(=O)NC3COC3)cc2)cc2c(=O)n([C@H]3CCOC[C@@H]3O)cnc2c1C` [Example 27, 1,5-anhydro-2,3-dideoxy-3-(7,8-dimethyl-6-(4-(oxetan-3-ylcarbamoyl)benzyl)-4-oxoquinazolin-3(4H)-yl)-L-threo-pentitol], on MDR1, the efflux ratio at 1 hr, 1 μM came to 23. Moreover, in data set [1], the “activity (%) at 10 μM” value is recorded as 110% and the EC50 amounted to 1.4 nM.

`Cc1c(Cc2ccc(C(=O)NCC(=O)N(C)C)c(F)c2)cc2c(=O)n([C@H]3CCOC[C@@H]3O)cnc2c1C` [Example 68, 1,5-anhydro-2,3-dideoxy-3-(6-(4-((2-(dimethylamino)-2-oxoethyl)carbamoyl)-3-fluorobenzyl)-7,8-dimethyl-4-oxoquinazolin-3 (4H)-yl)-L-threo-pentitol]: the efflux ratio at 1 hr, 1 μM on MDR1 is 19. In data set [1], the “activity (%) at 10 μM” value was 106% and the EC50 is 1.7 nM.

For `Cc1c(Cc2ccc(-c3cnn(C4CC4)c3)nc2)cc2c(=O)n([C@H]3CCOC[C@@H]3O)cnc2c1C` [Example 56, 1,5-anhydro-3-(6-((6-(1-cyclopropyl-1H-pyrazol-4-yl)pyridin-3-yl)methyl)-7,8-dimethyl-4-oxoquinazolin-3 (4H)-yl)-2,3-dideoxy-L-threo-pentitol], on MDR1, the efflux ratio at 1 hr, 1 μM is 4.9. Also, in data set [1], the “activity (%) at 10 μM” value is given as 107% and the EC50 came to 2.1 nM.

Turning to `CCOCCNC(=O)c1ccc(Cc2cc3c(=O)n([C@H]4CCOC[C@@H]4O)cnc3c(C)c2C)cc1F` [Example 85, 1,5-anhydro-2,3-dideoxy-3-(6-(4-((2-ethoxyethyl)carbamoyl)-3-fluorobenzyl)-7,8-dimethyl-4-oxoquinazolin-3(4H)-yl)-L-threo-pentitol], the efflux ratio at 1 hr, 1 μM on MDR1 turned out to be 10. For the same compound, in data set [1], the “activity (%) at 10 μM” value is 107% and the EC50 turned out to be 2.1 nM.

Take `Cc1c(Cc2ccc(C(=O)NCC3COC3)c(F)c2)cc2c(=O)n([C@H]3CCOC[C@@H]3O)cnc2c1C` [Example 79, 1,5-anhydro-2,3-dideoxy-3-(6-(3-fluoro-4-((oxetan-3-ylmethyl)carbamoyl)benzyl)-7,8-dimethyl-4-oxoquinazolin-3 (4H)-yl)-L-threo-pentitol]: the efflux ratio at 1 hr, 1 μM at MDR1 came to 26. Further, in data set [1], the “activity (%) at 10 μM” value is reported as 108% and the EC50 was 1.5 nM.

Regarding `Cc1c(Cc2ccc(C(=O)NCC3(O)CC3)c(F)c2)cc2c(=O)n([C@H]3CCOC[C@@H]3O)cnc2c1C` [Example 76, 1,5-anhydro-2,3-dideoxy-3-(6-(3-fluoro-4-(((1-hydroxycyclopropyl)methyl)-carbamoyl)benzyl)-7,8-dimethyl-4-oxoquinazolin-3 (4H)-yl)-L-threo-pentitol], on MDR1, the efflux ratio at 1 hr, 1 μM was determined as 15. Besides, in data set [1], the “activity (%) at 10 μM” value amounted to 106% and the EC50 was 1.9 nM.

For the compound `COc1cc2ncn([C@H]3CCOC[C@@H]3O)c(=O)c2cc1Cc1ccc(-c2cn(C)cn2)cc1` [Example 61, 1,5-anhydro-2,3-dideoxy-3-(7-methoxy-6-(4-(1-methyl-1H-imidazol-4-yl)benzyl)-4-oxoquinazolin-3 (4H)-yl)-L-threo-pentitol], the efflux ratio at 1 hr, 1 μM at MDR1 stood at 32. Also, in data set [1], the “activity (%) at 10 μM” value was 108% and the EC50 was 2.2 nM.

On to `Cc1c(Cc2ccc(C(=O)NCC3CC3)cc2)cc2c(=O)n([C@H]3CCOC[C@@H]3O)cnc2c1C` [Example 29, 1,5-anhydro-3-(6-(4-((cyclopropylmethyl)carbamoyl)-benzyl)-7,8-dimethyl-4-oxoquinazolin-3 (4H)-yl)-2,3-dideoxy-L-threo-pentitol], for which the efflux ratio at 1 hr, 1 μM at MDR1 is 12. For the same compound, in data set [1], the “activity (%) at 10 μM” value came to 112% and the EC50 turned out to be 1.6 nM.

In the case of `COCCCNC(=O)c1ccc(Cc2cc3c(=O)n([C@H]4CCOC[C@@H]4O)cnc3c(C)c2C)cc1F` [Example 86, 1,5-anhydro-2,3-dideoxy-3-(6-(3-fluoro-4-((3-methoxypropyl)carbamoyl)benzyl)-7,8-dimethyl-4-oxoquinazolin-3(4H)-yl)-L-threo-pentitol], on MDR1, the efflux ratio at 1 hr, 1 μM worked out at 7.8. Moreover, in data set [1], the “activity (%) at 10 μM” value is on record as 110% and the EC50 came to 3.1 nM.

As to `COc1cc2ncn([C@H]3CCOC[C@@H]3O)c(=O)c2cc1Cc1ccc(-c2cnn(C)c2)nc1` [Example 58, 1,5-anhydro-2,3-dideoxy-3-(7-methoxy-6-((6-(1-methyl-1H-pyrazol-4-yl)pyridin-3-yl)methyl)-4-oxoquinazolin-3 (4H)-yl)-L-threo-pentitol], the efflux ratio at 1 hr, 1 μM at MDR1 is 19. Further, in data set [1], the “activity (%) at 10 μM” value came out at 103% and the EC50 was found to be 1.9 nM.

For `Cc1c(Cc2ccc(-c3cnn(C)c3)cc2)cc2c(=O)n([C@H]3CCOC[C@@H]3O)cnc2c1C` [Example 9, 1,5-anhydro-2,3-dideoxy-3-(7,8-dimethyl-6-(4-(1-methyl-1H-pyrazol-4-yl)benzyl)-4-oxoquinazolin-3(4H)-yl)-L-threo-pentitol], on MDR1, the efflux ratio at 1 hr, 1 μM came out at 2.1. Besides, in data set [1], the “activity (%) at 10 μM” value worked out at 109% and the EC50 is 3.3 nM.

As to `Cc1c(Cc2ccc(-c3cnn(C)c3)nc2)cc2c(=O)n([C@H]3CCOC[C@@H]3O)cnc2c1Cl` [Example 11, 1,5-anhydro-3-(8-chloro-7-methyl-6-((6-(1-methyl-1H-pyrazol-4-yl)pyridin-3-yl)methyl)-4-oxoquinazolin-3(4H)-yl)-2,3-dideoxy-L-threo-pentitol], the efflux ratio at 1 hr, 1 μM on MDR1 was found to be 17. Moreover, in data set [1], the “activity (%) at 10 μM” value is on record as 100% and the EC50 turned out to be 0.91 nM.

Consider `Cc1c(Cc2ccc(-c3cnn(C4CCOCC4)c3)nc2)cc2c(=O)n([C@H]3CCOC[C@@H]3O)cnc2c1C` [Example 75, 1,5-anhydro-2,3-dideoxy-3-(7,8-dimethyl-4-oxo-6-((6-(1-(tetrahydro-2H-pyran-4-yl)-1H-pyrazol-4-yl)pyridin-3-yl)methyl)quinazolin-3(4H)-yl)-L-threo-pentitol], for which the efflux ratio at 1 hr, 1 μM at MDR1 is 13. In addition, in data set [1], the “activity (%) at 10 μM” value is 108% and the EC50 stood at 3 nM.

For `COCCNC(=O)c1ccc(Cc2cc3c(=O)n([C@H]4CCOC[C@@H]4O)cnc3c(C)c2C)cc1` [Example 49, 1,5-anhydro-2,3-dideoxy-3-(6-(4-((2-methoxyethyl)carbamoyl)benzyl)-7,8-dimethyl-4-oxoquinazolin-3 (4H)-yl)-L-threo-pentitol], on MDR1, the efflux ratio at 1 hr, 1 μM amounted to 20. In data set [1], the “activity (%) at 10 μM” value is on record as 101% and the EC50 was found to be 1.1 nM.

As for `Cc1c(Cc2ccc(C(=O)NC3CS(=O)(=O)C3)c(F)c2)cc2c(=O)n([C@H]3CCOC[C@@H]3O)cnc2c1C` [Example 83, 1,5-anhydro-2,3-dideoxy-3-(6-(4-((1,1-dioxidethietan-3-yl)carbamoyl)-3-fluorobenzyl)-7,8-dimethyl-4-oxoquinazolin-3 (4H)-yl)-L-threo-pentitol], at MDR1, the efflux ratio at 1 hr, 1 μM was found to be 19. Also, in data set [1], the “activity (%) at 10 μM” value is 109% and the EC50 was found to be 1.5 nM.

As to `COC1CN(C(=O)c2ccc(Cc3cc4c(=O)n([C@H]5CCOC[C@@H]5O)cnc4c(C)c3C)cc2)C1` [Example 41, 1,5-anhydro-2,3-dideoxy-3-(6-(4-((3-methoxyazetidin-1-yl)carbonyl)benzyl)-7,8-dimethyl-4-oxoquinazolin-3 (4H)-yl)-L-threo-pentitol], the efflux ratio at 1 hr, 1 μM at MDR1 stood at 13. Further, in data set [1], the “activity (%) at 10 μM” value came to 108% and the EC50 was 11 nM.

For the origin of these results see patent US11560372B2, “Heterocyclic compounds useful as modulators of acetylcholine receptors” (TAKEDA PHARMACEUTICAL COMPANY LIMITED, priority 2017, dated 2023).
